Earlier results, collected in patent publication US20090143360A1, “Oxcarbazepine Formulation” (priority 2005, published 2009).

NC(=O)N1c2ccccc2CC(=O)c2ccccc21 [Oxcarbazepine, 10,11-Dihydro-10-oxo-5H-dibenz[b,f]azepine-5-carboxamide]
Solubility in water: very low
